The IC50 is the concentration that inhibits the measured activity by half. A low value points to greater potency in that assay.

One assay concerns the target T1, Ephrin type-A receptor 3 (Mus musculus, UniProt P29319).
T1 sequence (P29319 whole entry): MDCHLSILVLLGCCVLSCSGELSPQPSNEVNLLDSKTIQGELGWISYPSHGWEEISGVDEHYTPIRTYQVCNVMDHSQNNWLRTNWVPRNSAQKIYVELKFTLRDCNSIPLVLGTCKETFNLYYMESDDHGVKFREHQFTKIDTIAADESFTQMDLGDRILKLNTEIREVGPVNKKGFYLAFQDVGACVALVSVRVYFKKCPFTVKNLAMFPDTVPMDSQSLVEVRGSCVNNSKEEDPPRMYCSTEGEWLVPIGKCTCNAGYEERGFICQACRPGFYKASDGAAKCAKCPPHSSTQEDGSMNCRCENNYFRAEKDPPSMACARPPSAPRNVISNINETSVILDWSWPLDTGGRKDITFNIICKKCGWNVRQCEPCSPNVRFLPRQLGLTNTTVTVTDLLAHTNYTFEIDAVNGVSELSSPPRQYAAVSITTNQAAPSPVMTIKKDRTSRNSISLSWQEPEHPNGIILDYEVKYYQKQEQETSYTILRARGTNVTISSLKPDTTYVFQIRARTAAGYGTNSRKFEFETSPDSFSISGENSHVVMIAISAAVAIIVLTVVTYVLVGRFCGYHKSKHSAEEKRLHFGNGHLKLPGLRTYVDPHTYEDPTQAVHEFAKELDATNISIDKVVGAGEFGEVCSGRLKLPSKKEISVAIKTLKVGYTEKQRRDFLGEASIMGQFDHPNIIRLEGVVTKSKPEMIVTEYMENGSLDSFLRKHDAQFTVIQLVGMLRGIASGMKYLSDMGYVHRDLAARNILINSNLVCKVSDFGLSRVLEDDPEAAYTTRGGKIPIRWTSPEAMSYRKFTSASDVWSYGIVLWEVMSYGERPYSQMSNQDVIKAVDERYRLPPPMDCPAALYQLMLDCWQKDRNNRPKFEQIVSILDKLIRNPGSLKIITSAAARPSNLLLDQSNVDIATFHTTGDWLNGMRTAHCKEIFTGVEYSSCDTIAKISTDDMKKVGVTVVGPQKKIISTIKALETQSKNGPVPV
The assay can be described thus: Displacement of biotinylated ephrin-A1-Fc from mouse EphA3 Fc preincubated for 1 hr followed by ephrin-A1-FC addition and measured after 4 hrs by ELISA. A general note: ELISA stands for enzyme-linked immunosorbent assay.

Another assay concerns the target T2, Ephrin type-B receptor 6 (Mus musculus, UniProt O08644).
T2 sequence (O08644 whole entry): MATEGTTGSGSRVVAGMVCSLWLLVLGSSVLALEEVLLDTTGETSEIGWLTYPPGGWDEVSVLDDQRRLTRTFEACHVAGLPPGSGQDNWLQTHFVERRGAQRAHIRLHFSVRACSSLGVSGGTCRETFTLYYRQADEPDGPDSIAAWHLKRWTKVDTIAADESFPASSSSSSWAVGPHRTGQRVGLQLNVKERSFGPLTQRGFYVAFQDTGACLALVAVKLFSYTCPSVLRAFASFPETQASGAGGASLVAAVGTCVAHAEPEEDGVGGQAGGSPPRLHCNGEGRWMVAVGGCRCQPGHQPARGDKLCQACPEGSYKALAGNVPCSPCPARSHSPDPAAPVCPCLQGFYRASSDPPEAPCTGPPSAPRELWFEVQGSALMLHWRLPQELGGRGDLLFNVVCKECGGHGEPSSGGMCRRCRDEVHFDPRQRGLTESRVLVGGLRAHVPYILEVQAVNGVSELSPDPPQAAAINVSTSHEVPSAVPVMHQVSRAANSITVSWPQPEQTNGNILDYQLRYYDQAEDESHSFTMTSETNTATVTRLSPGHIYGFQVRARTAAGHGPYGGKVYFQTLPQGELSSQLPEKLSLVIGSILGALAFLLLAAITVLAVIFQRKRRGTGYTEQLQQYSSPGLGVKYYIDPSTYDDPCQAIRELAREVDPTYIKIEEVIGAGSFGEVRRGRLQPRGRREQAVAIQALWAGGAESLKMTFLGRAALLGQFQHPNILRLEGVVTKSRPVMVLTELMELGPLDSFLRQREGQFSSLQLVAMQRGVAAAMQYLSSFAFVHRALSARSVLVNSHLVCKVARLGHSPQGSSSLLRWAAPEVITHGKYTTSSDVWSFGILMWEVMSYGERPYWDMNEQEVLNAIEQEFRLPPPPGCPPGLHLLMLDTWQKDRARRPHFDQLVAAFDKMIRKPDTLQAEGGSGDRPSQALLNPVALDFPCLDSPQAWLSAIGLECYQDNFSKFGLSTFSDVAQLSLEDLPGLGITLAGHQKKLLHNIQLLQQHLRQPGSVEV
Description: Displacement of biotinylated ephrin-B1-Fc from mouse EphB6 Fc preincubated for 1 hr followed by ephrin-B1-FC addition and measured after 4 hrs by ELISA.

The target in the next assay is Ephrin type-A receptor 7 (Mus musculus, UniProt Q61772). Description: Displacement of biotinylated ephrin-A1-Fc from mouse EphA7 Fc preincubated for 1 hr followed by ephrin-A1-FC addition and measured after 4 hrs by ELISA.

The structures appear in SMILES notation. Where only a bound is given, the exact number is not on record here.

Chain of Ephrin type-A receptor 7 (Q61772 whole entry): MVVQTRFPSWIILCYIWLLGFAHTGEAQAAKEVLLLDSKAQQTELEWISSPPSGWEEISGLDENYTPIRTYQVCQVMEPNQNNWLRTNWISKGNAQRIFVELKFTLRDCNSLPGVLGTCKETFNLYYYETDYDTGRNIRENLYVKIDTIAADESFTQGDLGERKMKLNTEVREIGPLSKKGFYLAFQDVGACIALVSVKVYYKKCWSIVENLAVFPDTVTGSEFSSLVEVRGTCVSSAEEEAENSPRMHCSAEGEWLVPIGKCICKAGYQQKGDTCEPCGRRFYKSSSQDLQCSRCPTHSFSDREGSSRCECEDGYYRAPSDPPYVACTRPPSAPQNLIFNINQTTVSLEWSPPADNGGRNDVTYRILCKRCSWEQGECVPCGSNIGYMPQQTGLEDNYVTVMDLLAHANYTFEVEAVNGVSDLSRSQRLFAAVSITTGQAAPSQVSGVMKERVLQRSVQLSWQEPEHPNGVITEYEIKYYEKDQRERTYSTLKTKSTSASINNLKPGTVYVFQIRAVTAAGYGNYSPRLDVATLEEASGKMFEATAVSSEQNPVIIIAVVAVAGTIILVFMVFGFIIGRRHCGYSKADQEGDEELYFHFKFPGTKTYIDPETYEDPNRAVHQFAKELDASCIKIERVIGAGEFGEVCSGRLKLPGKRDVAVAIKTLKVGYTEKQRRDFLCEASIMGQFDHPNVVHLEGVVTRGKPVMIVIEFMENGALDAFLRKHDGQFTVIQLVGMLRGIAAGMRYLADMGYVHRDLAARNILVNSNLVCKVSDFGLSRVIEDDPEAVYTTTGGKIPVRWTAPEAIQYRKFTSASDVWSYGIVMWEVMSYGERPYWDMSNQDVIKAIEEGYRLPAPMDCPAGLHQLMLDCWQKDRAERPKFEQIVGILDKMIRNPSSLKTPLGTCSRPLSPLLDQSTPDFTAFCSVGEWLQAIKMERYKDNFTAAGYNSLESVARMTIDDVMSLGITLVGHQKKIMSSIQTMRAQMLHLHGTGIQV

Take `CCNC(=O)O[C@@H]1CC[C@@]2(C)[C@H](CC[C@@H]3[C@@H]2CC[C@]2(C)[C@@H]([C@H](C)CCC(=O)N[C@H](CC(=O)O)Cc4c[nH]c5ccccc45)CC[C@@H]32)C1`: the IC50 on Ephrin type-A receptor 3 is 4.5 µM; at Ephrin type-B receptor 6 it was > 30 µM; at Ephrin type-A receptor 7 it was > 30 µM.

For the origin of these results see ChEMBL document CHEMBL4680187, “Optimization of EphA2 antagonists based on a lithocholic acid core led to the identification of UniPR505, a new 3α-carbamoyloxy derivative with antiangiogenetic properties” (Eur J Med Chem, 2020).
